Experimental data published in patent US20060045953A1 (priority 2004, published 2006).

biological target: T1, hT1R2/hT1R3 sweet receptor (Homo sapiens, UniProt Q7RTX0+Q8TE23); experiment: In vitro hT1R2/hT1R3 sweet taste receptor activation assay (FLIPR, dose response); type: cell-based; settings: Table E, Sweet Enhancer Amides; read-out: Sweet EC50
T1 construct: expressed in transfected cells; host or cells: HEK293 derivative stably expressing Gα15, clone S-9
T1 sequence (Q8TE23 20-839): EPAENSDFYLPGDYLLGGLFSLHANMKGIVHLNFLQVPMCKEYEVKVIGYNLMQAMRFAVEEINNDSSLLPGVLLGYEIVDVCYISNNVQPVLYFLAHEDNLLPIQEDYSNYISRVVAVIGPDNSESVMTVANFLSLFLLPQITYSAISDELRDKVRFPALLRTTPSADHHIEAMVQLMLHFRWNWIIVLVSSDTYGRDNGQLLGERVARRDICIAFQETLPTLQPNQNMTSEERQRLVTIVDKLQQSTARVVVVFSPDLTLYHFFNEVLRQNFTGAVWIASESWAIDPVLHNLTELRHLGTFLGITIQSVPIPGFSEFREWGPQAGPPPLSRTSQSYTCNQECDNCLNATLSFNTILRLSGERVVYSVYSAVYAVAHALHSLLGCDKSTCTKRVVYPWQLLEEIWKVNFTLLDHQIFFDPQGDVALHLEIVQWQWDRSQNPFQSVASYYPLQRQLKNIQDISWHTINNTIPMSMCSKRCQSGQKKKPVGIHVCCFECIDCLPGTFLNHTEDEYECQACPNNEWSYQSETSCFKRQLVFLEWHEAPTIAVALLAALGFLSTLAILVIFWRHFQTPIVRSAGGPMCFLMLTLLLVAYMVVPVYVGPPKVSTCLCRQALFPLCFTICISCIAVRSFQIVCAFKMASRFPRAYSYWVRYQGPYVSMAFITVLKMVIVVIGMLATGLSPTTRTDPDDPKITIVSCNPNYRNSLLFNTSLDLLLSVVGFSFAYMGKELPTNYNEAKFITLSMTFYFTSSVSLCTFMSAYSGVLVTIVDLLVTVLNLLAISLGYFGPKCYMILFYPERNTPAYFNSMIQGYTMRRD
T1 sequence (Q7RTX0 21-852): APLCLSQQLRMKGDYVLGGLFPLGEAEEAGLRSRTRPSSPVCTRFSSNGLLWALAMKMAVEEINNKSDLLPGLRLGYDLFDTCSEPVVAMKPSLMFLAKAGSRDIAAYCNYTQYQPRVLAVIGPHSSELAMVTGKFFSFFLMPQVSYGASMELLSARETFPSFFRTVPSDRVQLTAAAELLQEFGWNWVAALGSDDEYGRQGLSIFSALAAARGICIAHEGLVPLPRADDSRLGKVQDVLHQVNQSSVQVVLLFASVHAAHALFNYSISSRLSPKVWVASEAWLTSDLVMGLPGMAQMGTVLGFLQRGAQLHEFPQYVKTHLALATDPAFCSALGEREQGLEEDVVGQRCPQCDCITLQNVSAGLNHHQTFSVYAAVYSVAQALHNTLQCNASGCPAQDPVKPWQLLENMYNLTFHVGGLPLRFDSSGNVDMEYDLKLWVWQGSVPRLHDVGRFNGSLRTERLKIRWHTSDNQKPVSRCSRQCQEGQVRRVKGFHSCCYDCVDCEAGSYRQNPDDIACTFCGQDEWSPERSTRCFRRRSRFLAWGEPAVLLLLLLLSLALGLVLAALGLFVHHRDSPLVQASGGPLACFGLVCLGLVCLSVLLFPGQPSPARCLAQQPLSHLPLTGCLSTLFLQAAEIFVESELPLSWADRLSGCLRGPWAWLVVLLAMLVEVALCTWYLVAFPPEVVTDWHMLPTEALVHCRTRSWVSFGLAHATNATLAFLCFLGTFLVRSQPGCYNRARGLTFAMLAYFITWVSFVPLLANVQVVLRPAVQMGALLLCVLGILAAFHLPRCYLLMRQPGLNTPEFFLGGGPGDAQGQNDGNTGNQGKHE
Outline: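 S-9 cells expressing hT1R2/hT1R3, loaded with 4 µM Fluo-3AM 1 h at room temperature. Calcium response on FLIPR at room temperature in D-PBS, with 10 concentrations from 60 nM to 30 µM in duplicate.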

Row | Structure (SMILES) | EC50
1 | Cc1cccc(C(=O)NC2CCCCC2C)c1C (centres unmarked) [Example E63, 2,3-dimethyl-N-(2-methylcyclohexyl)benzamide] | 2.6 µM
2 | CC1CCCC(NC(=O)c2c(Cl)cccc2Cl)C1C (centres unmarked) [Example E64, 2,6-dichloro-N-(2,3-dimethylcyclohexyl)benzamide] | 2.77 µM
3 | CC1CCCCC1NC(=O)c1ccnc(F)c1 (centres unmarked) [Example E65, 2-fluoro-N-(2-methylcyclohexyl)isonicotinamide] | 2.83 µM
4 | Cc1cc(C)c(C(=O)NC2CCCCC2)c(C)c1 [Example E66, N-cyclohexyl-2,4,6-trimethylbenzamide] | 2.86 µM
5 | Cc1ccc(C(=O)NC2CCC(C)CC2)c(O)c1 (centres unmarked) [Example E67, 2-hydroxy-4-methyl-N-(4-methylcyclohexyl)benzamide] | 2.98 µM
6 | Cc1c(F)c(F)c(C(=O)NCC(C)C)c(F)c1F [Example E69, 2,3,5,6-tetrafluoro-N-isobutyl-4-methylbenzamide] | 3.19 µM
7 | Cc1c(F)c(F)c(C(=O)NC(C)CCC(C)C)c(F)c1F (centres unmarked) [Example E70, 2,3,5,6-tetrafluoro-4-methyl-N-(5-methylhexan-2-yl)benzamide] | 3.2 µM
8 | CC1CCCCC1NC(=O)c1ccc2nonc2c1 (centres unmarked) [Example E71] | 3.33 µM
9 | COc1cccc(C(=O)NC2CCC(C)CC2)c1O (centres unmarked) [Example E72, 2-hydroxy-3-methoxy-N-(4-methylcyclohexyl)benzamide] | 3.35 µM
10 | CC12CCC(C1)C(C)(C)C2NC(=O)c1cccs1 (centres unmarked) [Example E73, Thiophene-2-carboxylic acid (1,3,3-trimethyl-bicyclo[2.2.1]hept-2-yl)-amide] | 3.36 µM
11 | CC1CCCC(NC(=O)Cc2c(F)c(F)c(F)c(F)c2F)C1C (centres unmarked) [Example E74, N-(2,3-dimethylcyclohexyl)-2-(perfluorophenyl)acetamide] | 3.62 µM
12 | CCC(CC)NC(=O)c1cccc(Cl)c1Cl [Example E75, 2,3-dichloro-N-(pentan-3-yl)benzamide] | 3.78 µM
13 | CC1CCCC(NC(=O)c2cccc(Cl)c2Cl)C1C (centres unmarked) [Example E76, 2,3-dichloro-N-(2,3-dimethylcyclohexyl)benzamide] | 3.99 µM
14 | CC1CCCC(NC(=O)c2cc(F)ccc2F)C1C (centres unmarked) [Example E77, N-(2,3-dimethylcyclohexyl)-2,5-difluorobenzamide] | 4.11 µM
15 | CC(C)C(NC(=O)c1c(O)cccc1O)C(C)C [Example E79, N-(2,4-dimethylpentan-3-yl)-2,6-dihydroxybenzamide] | 4.28 µM
16 | Cc1c(Cl)cccc1C(=O)NC1CCCCC1C (centres unmarked) [Example E80, 3-chloro-2-methyl-N-(2-methylcyclohexyl)benzamide] | 4.29 µM
17 | CC1CCCCC1NC(=O)c1ccc(F)c(F)c1 (centres unmarked) [Example E81] | 4.37 µM
18 | Cc1cc(C)cc(C(=O)NC2CCCCC2C)c1 (centres unmarked) [Example E82, 3,5-dimethyl-N-(2-methylcyclohexyl)benzamide] | 4.48 µM
19 | CCOc1ccc(CCNC(=O)c2ccnn2C)cc1 [Example E83, N-(4-ethoxyphenethyl)-1-methyl-i H-pyrazole-5-carboxamide] | 4.68 µM
20 | COc1c(Cl)ccc(Cl)c1C(=O)Nc1ccccc1F [Example E84, 3,6-dichloro-N-(2-fluorophenyl)-2-methoxybenzamide] | 0.83 µM
21 | COc1cc(Cl)c(NC(=O)c2cccc(C(F)(F)F)c2)c(OC)c1 [Example E85, N-(2-Chloro-4,6-dimethoxy-phenyl)-3-trifluoromethyl-benzamide] | 1.42 µM
22 | COc1c(Cl)cc(C(=O)Nc2ccc(C)cc2C)cc1Cl [Example E86, 3,5-dichloro-N-(2,4-dimethylphenyl)-4-methoxybenzamide] | 1.48 µM
23 | O=C(Nc1nnc(C(F)(F)F)s1)c1ccc(F)c(Cl)c1 [Example E87, 3-Chloro-4-fluoro-N-(5-trifluoromethyl-[1,3,4]thiadiazol-2-yl)-benzamide] | 1.55 µM

Continued, values first:

Row | EC50 | Structure (SMILES)
24 | 1.84 µM | COc1c(Cl)cc(C(=O)Nc2ccccc2C)cc1Cl [Example E88, 3,5-dichloro-4-methoxy-N-o-tolylbenzamide]
25 | 2.56 µM | O=C(Nc1ccc(F)cc1F)c1cc(Cl)ccc1O [Example E89, 5-Chloro-N-(2,4-difluoro-phenyl)-2-hydroxy-benzamide]
26 | 2.71 µM | N#Cc1c(F)cccc1NC(=O)c1ccc(Cl)cc1Cl [Example E90, 2,4-Dichloro-N-(2-cyano-3-fluoro-phenyl)-benzamide]
27 | 2.74 µM | N#Cc1ccc(NC(=O)c2c(Cl)cccc2Cl)cc1 [Example E91, 2,6-Dichloro-N-(4-cyano-phenyl)-benzamide]
28 | 2.74 µM | Cc1ccc(NC(=O)c2ccc(Cl)c(C)c2)c(C)c1 [Example E92, 4-chloro-N-(2,4-dimethylphenyl)-3-methylbenzamide]
29 | 3.24 µM | COc1ccc(NC(=O)c2cc(Cl)c(OC)c(Cl)c2)cc1 [Example E93, 3,5-dicbloro-4-methoxy-N-(4-methoxyphenyl)benzamide]
30 | 3.56 µM | COc1ccc(NC(=O)c2ccc(F)c(Cl)c2)c(OC)c1 [Example E94, 3-chloro-N-(2,4-dimethoxyphenyl)-4-fluorobenzamide]
31 | 3.58 µM | CSc1nc(C)c(C(=O)Nc2ccccc2)c(C)c1C#N [Example E95, 5-Cyano-2,4-dimethyl-6-methylsulfanyl-N-phenyl-nicotinamide]
32 | 3.73 µM | CC(C)(C)c1csc(NC(=O)c2ccncc2)n1 [Example E96, N-(4-tert-Butyl-thiazol-2-yl)-isonicotinamide]
33 | 4.25 µM | COc1c(Cl)ccc(Cl)c1C(=O)Nc1ccc(C)cc1C [Example E97, 3,6-Dichloro-N-(2,4-dimethyl-phenyl)-2-methoxy-benzamide]
34 | 4.63 µM | CCc1cccc(NC(=O)c2c(C)cccc2OC)c1 [Example E98, N-(3-ethylphenyl)-2-methoxy-6-methylbenzamide]
35 | 0.93 µM | Cc1cc(Br)cc(C)c1NC(=O)N1Cc2ccccc2C1 [Example E99, N-(4-bromo-2,6-dimethylphenyl)isoindoline-2-carboxamide]
36 | 1.3 µM | Cc1cc([N+](=O)[O-])ccc1NC(=O)N1Cc2ccccc2C1 [Example E100, N-(2-methyl-4-nitrophenyl)isoindoline-2-carboxamide]
37 | 1.37 µM | O=C(Nc1ccc(F)cc1F)N1Cc2ccccc2C1 [Example E101, N-(2,4-difluorophenyl)isoindoline-2-carboxamide]
38 | 2.01 µM | Cc1c(NC(=O)N2Cc3ccccc3C2)cccc1[N+](=O)[O-] [Example E102, N-(2-methyl-3-nitrophenyl)isoindoline-2-carboxamide]
39 | 2.58 µM | O=C(Nc1ccc(F)c(F)c1F)N1Cc2ccccc2C1 [Example E103, N-(2,3,4-trifluorophenyl)isoindoline-2-carboxamide]
40 | 3.05 µM | Cc1ccc(NC(=O)N2Cc3ccccc3C2)cc1 [Example E104, N-p-tolylisoindoline-2-carboxamide]
41 | 3.4 µM | O=C(Nc1ccc(Cl)cc1)N1Cc2ccccc2C1 [Example E105, N-(4-chlorophenyl)isoindoline-2-carboxamide]
42 | 3.85 µM | O=C(Nc1ccccc1Cl)N1Cc2ccccc2C1 [Example E106, N-(2-chlorophenyl)isoindoline-2-carboxamide]
43 | 4.15 µM | O=C(Nc1ccc(Cl)cc1Cl)N1Cc2ccccc2C1 [Example E107, N-(2,4-dichlorophenyl)isoindoline-2-carboxamide]
44 | 4.99 µM | COc1ccc(NC(=O)N2Cc3ccccc3C2)cc1 [Example E108, N-(4-methoxyphenyl)isomdoline-2-carboxamide]
